One data set is described as follows: clinical. Format: in vivo, human. On the procedure:
The patient's diagnosis were CRC (7), breast (3), gastric (3) and other (4).
A total of 17 patients were entered in this pharmacokinetic study after informed consent.
Blood was sampled during 24 hours. […] Blood samples were taken by venipuncture in heparinized tubes of 9 ml and transported on ice for immediate processing.
Blood samples were centrifuged for 5 min at 4000 rpm and 4° C. The plasma was transferred to 2 eppendorf vials of 2 ml and stored at −20° C.
Analysis for tegafur and cyanuric acid was performed by validated HPLC assays, while the analysis of the other compounds was performed after derivatization by validated gas-chromatography-mass spectrometry methods as described previously [Peters G. J., Noordhuis P., Van Kuilenburg A. B. P., Schornagel J. H., Gall H., Turner S. L., Swart M. S., Voorn D., Van Gennip A. H., Wanders J., Holwerda U., Smid K., Giaccone G., Fumoleau P. and Van Groeningen C. […] Cancer Chemother. Pharmacol., 38: 1-12, 2003.].
The pharmacokinetic parameters for tegafur, 5FU, oxonic acid, cyan uric acid, and CDHP were calculated with the computer program WinNonLin (version 1.5). The data were analyzed using non-compartment modeling. The parameters that could be established were: time point of maximum observed concentration in plasma (Tmax), concentration in plasma corresponding to Tmax (Cmax), terminal half-life (t½), area under the plasma concentration versus time (C-t) curve (AUCall).

In data set [1] the target is T1, dihydropyrimidine dehydrogenase (DPD) (Homo sapiens, UniProt Q12882).
T1 sequence (Q12882 4-1025): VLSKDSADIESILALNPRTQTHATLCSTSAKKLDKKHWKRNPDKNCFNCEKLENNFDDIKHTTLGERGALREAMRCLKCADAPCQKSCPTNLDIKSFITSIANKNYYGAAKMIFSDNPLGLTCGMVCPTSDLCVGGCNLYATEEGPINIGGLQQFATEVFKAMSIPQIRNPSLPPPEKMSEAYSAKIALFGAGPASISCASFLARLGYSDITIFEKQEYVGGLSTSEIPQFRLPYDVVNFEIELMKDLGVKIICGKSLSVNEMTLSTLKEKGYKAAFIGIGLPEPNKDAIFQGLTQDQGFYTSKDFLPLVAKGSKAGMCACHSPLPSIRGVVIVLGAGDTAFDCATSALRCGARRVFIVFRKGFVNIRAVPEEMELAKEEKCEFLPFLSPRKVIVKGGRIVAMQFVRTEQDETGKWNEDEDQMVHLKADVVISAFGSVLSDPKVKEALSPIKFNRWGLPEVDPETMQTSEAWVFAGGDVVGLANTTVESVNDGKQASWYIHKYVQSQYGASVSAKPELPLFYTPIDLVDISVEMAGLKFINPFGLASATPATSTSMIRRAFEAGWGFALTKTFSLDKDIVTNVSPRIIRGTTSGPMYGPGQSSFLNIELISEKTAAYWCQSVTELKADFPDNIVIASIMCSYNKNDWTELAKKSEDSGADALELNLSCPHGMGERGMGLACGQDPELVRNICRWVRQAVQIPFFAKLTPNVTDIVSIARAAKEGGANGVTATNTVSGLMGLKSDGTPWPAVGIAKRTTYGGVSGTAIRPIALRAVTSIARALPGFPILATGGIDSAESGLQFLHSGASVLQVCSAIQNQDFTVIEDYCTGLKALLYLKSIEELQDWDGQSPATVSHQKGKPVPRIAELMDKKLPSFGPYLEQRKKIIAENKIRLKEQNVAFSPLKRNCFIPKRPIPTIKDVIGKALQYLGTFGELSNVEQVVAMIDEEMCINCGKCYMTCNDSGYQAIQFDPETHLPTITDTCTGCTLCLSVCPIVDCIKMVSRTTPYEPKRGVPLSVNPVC
Description: Inhibition of dihydropyrimidine dehydrogenase. Format: biochemical. The following applies: vs uracil. An excerpt: It is gradually converted to 5-FU in vivo. • CDHP inhibits the catabolism of 5-FU by reversibly inhibiting the enzyme of dihydropyrimidine dehydrogenase (DPD). […] CDHP helps maintain effective blood and tumor concentrations of 5-FU for a prolonged period thus potentially achieving a similar therapeutic effect as protracted infusion of 5-FU. • Oxo blocks phosphorylation of 5-FU by orotate phosphoribosyltransferase (OPRT) in the gastrointestinal tract. […] Oxo is acid labile and thus its bioavailability is affected by food intake.

The test system of another data set is advanced gastric cancer. The following applies: in vivo.
[2] abbreviates: human, in vivo, po, 35 mg/m2, AUCall.
Where [3] appears, read: human, in vivo, po, 35 mg/m2, Cmax.
The mark [4] stands for this setting: human, in vivo, po, 35 mg/m2, t½.
Where [5] appears, read: human, in vivo, po, 35 mg/m2, Tmax.
The mark [6] stands for this setting: comparison fasting vs feeding group, S-1 35 mg/m^2.

In the case of `O=c1[nH]c(=O)n(C2CCCO2)cc1F` (racemic) [FT, 5-Fluoro-1-[(RS)-tetrahydrofuran-2-yl]pyrimidine-2,4-(1H,3H)-dione, reference compound], the Tmax in “clinical” (human, in vivo, po, 35 mg/m2) worked out at 0.6 h. The AUC in “clinical” (setting [2]) came to 15700 ng·h/mL. The Cmax in “clinical” (setting [3]) stood at 2370 ng/mL. The same compound had a half-life in the data set “clinical” (setting [4]) of 8.6 h. In “clinical” (in vivo), the “Tmax, without breakfast vs after breakfast” value is “earlier without breakfast” and the “t½, fasting vs feeding group” value is on record as “no significant difference”.

The compound `O=c1[nH]cc(F)c(=O)[nH]1` [5-FU, 5-fluorouracil, reference compound] registered an AUC in “clinical” (setting [2]) of 1100 ng·h/mL. The Cmax in the data set “clinical” (setting [3]) worked out at 210 ng/mL. Moreover, the Tmax in “clinical” (setting [5]) stood at 1.8 h. This compound also had a half-life in the data set “clinical” (setting [4]) of 2.2 h. Further, in the data set “clinical” (in vivo), the “Tmax, without breakfast vs after breakfast” value is “reached earlier without breakfast” and the “t½, fasting vs feeding group” value is “no significant difference”.

`O=c1[nH]c(=O)[nH]c(=O)[nH]1` [CA, cyanuric acid]: the “AUCall, fasting vs feeding group” value in the data set “clinical” (setting [6]) is “higher values in the feeding group as compared to the fasting group”. The “Cmax, fasting vs feeding group” value in the data set “clinical” (setting [6]) is “not significantly different”. The “Tmax, without breakfast vs after breakfast” value in the data set “clinical” (setting [6]) was “faster Tmax without breakfast”. The “t½, fasting vs feeding group” value in the data set “clinical” (setting [6]) was “not significantly different”. Further, the AUC in “clinical” (human, in vivo, po, 35 mg/m2, plasma, mean, S-1 35 mg/m^2 oral, fasted patients, read-out: AUCall) was 517 ng·h/mL; in the data set “clinical” (human, in vivo, po, 35 mg/m2, plasma, mean, S-1 35 mg/m^2 oral, fed patients, read-out: AUCall), 1220 ng·h/mL. Also, the Cmax in “clinical” (human, in vivo, po, 35 mg/m2, plasma, mean, S-1 35 mg/m^2 oral, fasted patients, read-out: Cmax) came out at 118 ng/mL; in “clinical” (human, in vivo, po, 35 mg/m2, plasma, mean, S-1 35 mg/m^2 oral, fed patients, read-out: Cmax), 160 ng/mL. The Tmax is 1.3 h in “clinical” (human, in vivo, po, 35 mg/m2, plasma, mean, S-1 35 mg/m^2 oral, fasted patients, read-out: Tmax) and 3.5 h in “clinical” (human, in vivo, po, 35 mg/m2, plasma, mean, S-1 35 mg/m^2 oral, fed patients, read-out: Tmax). The half-life in the data set “clinical” (human, in vivo, po, 35 mg/m2, plasma, mean, S-1 35 mg/m^2 oral, fasted patients, read-out: t½ (converted)) was 5.3 h; in “clinical” (human, in vivo, po, 35 mg/m2, plasma, mean, S-1 35 mg/m^2 oral, fed patients, read-out: t½ (converted)), 6.7 h.

Regarding `Oc1cc(O)c(Cl)cn1` [CDHP, 5-chloro-2,4-dihydroxypyridine], the AUC in “clinical” (setting [2]) was determined as 1920 ng·h/mL. Further, in the data set “clinical” (setting [3]), the Cmax came out at 464 ng/mL. Further, in the data set “clinical” (setting [5]), the Tmax stood at 1.1 h. Moreover, in the data set “clinical” (setting [4]), the half-life was 4.5 h. Besides, in “clinical” (in vivo), the “Tmax, without breakfast vs after breakfast” value is on record as “reached earlier without breakfast” and the “t½, fasting vs feeding group” value is “no significant difference”. Besides, in data set [1], the “potency of DPD inhibition relative to uracil” value is given as 180 fold.

For `O=C(O)c1nc(=O)[nH]c(=O)[nH]1` [Oxo, potassium oxonate], the “effect of food on bioavailability” value in the data set “clinical” (human, in vivo, po) is recorded as “profound effect”. In “clinical” (human, in vivo, po, 35 mg/m2), this compound returned an AUCall of 808.7 ng·h/mL and a Cmax of 158.1 ng/mL. The Tmax in the data set “clinical” (setting [5]) was determined as 1.6 h. This compound also gave a half-life in “clinical” (setting [4]) of 3.9 h. For the same compound, in “clinical” (in vivo), the “Tmax, without breakfast vs after breakfast” value is given as “significantly faster without breakfast” and the “t½, fasting vs feeding group” value was “not significantly different”.

As for `N.N.[Cl][Pt][Cl]` [cisplatin], in the data set on advanced gastric cancer, the “recommended dose for the phase II portion” value was 60 mg/m^2.
